For test [1], the target named is Actin, cytoplasmic 1 (Homo sapiens) (UniProt P60709). Put plainly: Inhibition of actin organization in human MCF7 cells transfected with GFP-tagged human beta-actin assessed as reduction of g-actin monomers at 100 nM after 30 mins by FRAP method. The class given is cell-based.
Test [2] shares this target. Briefly: Inhibition of actin organization in human MCF7 cells transfected with GFP-tagged human beta-actin assessed as formation of actin aggregates at 300 nM after 30 mins by FRAP method. The class given is cell-based.
Test [3] has the same target. Briefly: Inhibition of actin organization in human MCF7 cells transfected with GFP-tagged human beta-actin assessed as reduction of actin stress fibers at 100 nM after 24 hrs by FRAP method. The test is classed as cell-based.
Test [4] has the same target. Put plainly: Inhibition of actin organization in human MDA-MB-231 cells transfected with GFP-tagged human beta-actin assessed as reduction of actin stress fibers at 100 nM after 24 hrs by FRAP method. The test is classed as cell-based.
Test [5] has the same target. Put plainly: Inhibition of actin organization in human MCF7 cells transfected with GFP-tagged human beta-actin assessed as formation of actin aggregates at 300 to 500 nM after 24 hrs by FRAP method. The test is classed as cell-based.
Test [6] has the same target. Put plainly: Inhibition of actin organization in human MDA-MB-231 cells transfected with GFP-tagged human beta-actin assessed as formation of actin aggregates at 300 to 500 nM after 24 hrs by FRAP method. The test is classed as cell-based.
Test [7] deals with MCF7. Briefly: Antiproliferative activity against human MCF7 cells after 72 hrs by CellTiter-Blue assay. The class given is functional, cell-based.
Test [8] relates to MDA-MB-231. Put plainly: Antiproliferative activity against human MDA-MB-231 cells after 72 hrs by CellTiter-Blue assay. The class given is functional, cell-based.
The subject of test [9] is MDA-MB-231. Put plainly: Antimigratory activity against human MDA-MB-231 cells up to 10 hrs. The class given is functional, cell-based.
Test [10] relates to MCF7. Put plainly: Induction of apoptosis in human MCF7 cells after 24 hrs using propidium iodide by flow cytometry. The class given is functional, cell-based.
Test [11] relates to MDA-MB-231. Put plainly: Induction of apoptosis in human MDA-MB-231 cells after 24 hrs using propidium iodide by flow cytometry. The class given is functional, cell-based.
In test [12] the test system is MCF7. Put plainly: Induction of apoptosis in human MCF7 cells assessed as reduction of pro-caspase9 level after 48 hrs by Western blot analysis. The test is classed as functional, cell-based.
Test [13] deals with MDA-MB-231. Put plainly: Induction of apoptosis in human MDA-MB-231 cells assessed as reduction of pro-caspase9 level after 48 hrs by Western blot analysis. The class given is functional, cell-based.
Test [14] has as its system MCF7. Put plainly: Induction of apoptosis in human MCF7 cells assessed as PARP cleavage after 48 hrs by Western blot analysis. The test is classed as functional, cell-based.
In test [15] the test system is MDA-MB-231. Briefly: Induction of apoptosis in human MDA-MB-231 cells assessed as PARP cleavage after 48 hrs by Western blot analysis. The class given is functional, cell-based.

The source made the active and inactive calls. The calls are words filed in the database; no cut-off is given here.

Turning to `CC(C)[C@@H]1C[C@H](O)[C@H](C)C[C@H](C)C[C@H](C)C(=O)NCC(=O)N(C)[C@H](Cc2ccc(O)c(I)c2)C(=O)O1`, the inhibition entry in test [1], in test [2], in test [3], in test [4], in test [5] and in test [6] was “Active” in each case. The inhibition result in test [7], in test [8] and in test [9] was “Dose-dependent effect” throughout. Moreover, the IC50 was 93 nM in test [7] (MCF7, 72 h) and 77 nM in test [8] (MDA-MB-231, 72 h). Also, the Activity result in test [10], in test [11], in test [12] and in test [13] was “Dose-dependent effect” throughout. Further, the outcome in [14] and in test [15] was Active.
